Reference: ChEMBL document CHEMBL3797073 (Bioorg Med Chem, 2016)

Tests used:
Rattus norvegicus = experiment: Anticoagulant activity in Sprague-Dawley rat assessed as inhibition of arteriovenous thrombosis at 0.5 mg/ml administered 3 days prior to testing measured on day 4 relative to control; assay type: functional
Prothrombin [1] = target: T1, Prothrombin (Homo sapiens, UniProt P00734); experiment: Inhibition of human thrombin at 1 ug/ml preincubated for 10 mins followed by Ac-FVR-AMC substrate addition measured within 10 mins by fluorescence assay relative to control
Prothrombin [2] = target: T1, Prothrombin; experiment: Inhibition of human thrombin preincubated for 10 mins followed by Ac-FVR-AMC substrate addition measured within 10 mins by fluorescence assay

Row | SMILES | inhibition (INH) (Rattus norvegicus) | inhibition (Prothrombin [1]) | IC50 (Prothrombin [2]; read-out: IC50) | IC50 (Prothrombin [2]; read-out: pIC50 (converted))
1 | CCn1c(CNc2ccc(C(=N)N)cc2F)nc2cc(C(=O)N(CCC(=O)O)c3cccc(C)n3)ccc21 | 84.66% | 93.6% | 2.16 nM | 2.14 nM
2 | CCn1c(CNc2ccc(C(=N)N)cc2F)nc2cc(C(=O)N(CCC(=O)O)c3cc(F)cc(F)c3)ccc21 | – | 91.2% | – | –
3 | CCn1c(CNc2ccc(C(=N)N)cc2F)nc2cc(C(=O)N(CCC(=O)O)c3ccc(F)c(F)c3)ccc21 | – | 93.8% | 9.17 nM | 9.12 nM
4 | CCn1c(CNc2ccc(C(=N)N)cc2F)nc2cc(C(=O)N(CCC(=O)O)c3cc(C)ccn3)ccc21 | – | 92% | 3.69 nM | 3.72 nM
5 | CCn1c(CNc2ccc(C(=N)N)cc2F)nc2cc(C(=O)N(CCC(=O)O)c3c(C)cccc3C)ccc21 | – | 92.5% | 1.81 nM | 1.82 nM
6 | CCn1c(CNc2ccc(C(=N)N)cc2F)nc2cc(C(=O)N(CCC(=O)O)c3ccc(F)cc3F)ccc21 | 76.23% | 92.5% | 3.21 nM | 3.24 nM
7 | CCn1c(CNc2ccc(C(=N)N)cc2F)nc2cc(C(=O)N(CCC(=O)O)c3cc(C)ccc3C)ccc21 | – | 93% | 5.66 nM | 5.62 nM
8 | CCn1c(CNc2ccc(C(=N)N)cc2F)nc2cc(C(=O)N(CCC(=O)O)c3ccc(C)c(F)c3)ccc21 | – | 87.5% | – | –
9 | CCn1c(CNc2ccc(C(=N)N)cc2F)nc2cc(C(=O)N(CCC(=O)O)c3ccc(C)c(C)c3)ccc21 | – | 91.6% | 10.1 nM | –
10 | CCn1c(CNc2ccc(C(=N)N)cc2F)nc2cc(C(=O)N(CCC(=O)O)c3ccc(F)c(C)c3)ccc21 | – | 92.5% | 4.18 nM | 4.17 nM
11 | CCn1c(CNc2ccc(C(=N)N)cc2F)nc2cc(C(=O)N(CCC(=O)O)c3ccc(C)cc3)ccc21 | – | 88.2% | – | –
12 | CCn1c(CNc2ccc(C(=N)N)cc2F)nc2cc(C(=O)N(CCC(=O)O)c3cccc(C)c3C)ccc21 | – | 93.2% | 4.92 nM | 4.9 nM
13 | CCn1c(CNc2ccc(C(=N)N)cc2F)nc2cc(C(=O)N(CCC(=O)O)c3cc(C)cc(C)c3)ccc21 | – | 89% | – | –
14 | Cn1c(CNc2ccc(C(=N)N)cc2)nc2cc(C(=O)N(CCC(=O)O)c3ccccn3)ccc21 [DABIGATRAN] | 85.07% | – | – | –
15 | CCn1c(CNc2ccc(C(=N)N)cc2F)nc2cc(C(=O)N(CCC(=O)O)c3ccc(C)cc3C)ccc21 | – | 91.9% | 7.18 nM | 7.24 nM
16 | CCn1c(CNc2ccc(C(=N)N)cc2F)nc2cc(C(=O)N(CCC(=O)O)c3cccc(C)c3)ccc21 | – | 92.8% | 5.44 nM | 5.5 nM
